Assay results reported in patent US5478816A, “Liquid vitamin formulations containing vitamin D esters” (Bristol-Myers Squibb Company, priority 1993, dated 1995).
Values joined by “and” are separate entries in the source; they are usually repeats but may differ in a detail not shown here. Equal entries are not always repeated. Where two headings read alike, the source gives them in different places.

Experiment: Short-term stability of vitamin D3 and vitamin D3 palmitate in liquid vitamin formulations at 40° C. (HPLC assay)
Format: physicochemical
Conditions: 40° C.; for half-life: liquid vitamin formulation, first order fit of 16 weeks data, read-out: Time in Weeks for 50% Degradation (T50)
Protocol: In addition to the above, the vitamin formulation contains flavorants, stabilizer of vitamins, and about 1.0% polysorbate 80 as surfactant. As appreciated by the skilled artisan, appropriate overages of vitamins are included in order to assure meeting the label claims. The example composition contains 1.86:1 ratio by weight of glycerine to water. The pH is 5.0 which is adjusted by using an appropriate ratio of ascorbic acid to sodium ascorbate.
Vitamin D was analyzed by a HPLC assay as described by Matthew G. Sliva, et al., "Reversed-Phase Liquid Chromatographic Determination of Vitamin D in Infant Formulas and Enteral Nutritionals," J Assoc. Off. Anal. Chem., 75, 566, 1992, except that saponification conditions of 70° C. for 40 minutes were employed.
Stability of vitamins D3 and D3 palmitate were compared in various vitamin formulations containing different amounts of water and glycerin and at different pHs. The other ingredients and method of pH adjustment were as described in Example 1. The results are in Tables 2-5. Each batch number represents a different liquid vitamin formulation. The amount of glycerin varied between 650 and 850 mg/ml, depending upon the amount of water. "Vit" represents vitamin, "Desc." represents description,"Vit D3" represents vitamin D3, and "Vit D3P" or "D3 P" represents vitamin D3 palmitate. Table 1 lists the half-life (T50) values, i.e., time to degrade to 50% of the starting concentration of vitamins D3 and D3 palmitate at 40° C., These T50 values were calculated by fitting the data to first order degradation rate.

C=C1CC[C@H](O)C/C1=C/C=C1\CCC[C@]2(C)[C@@H]([C@H](C)CCCC(C)C)CC[C@@H]12 [Vitamin D3, vitamin D3]
half-life (pH 3.2, pH 3.2, 252 mg/ml water): 220 days
half-life (pH 3.2, pH 3.2, 390 mg/ml water): 73.5 days
half-life (pH 4.2, pH 4.2, 252 mg/ml water): 105 days
half-life (pH 4.2, pH 4.2, 390 mg/ml water): 44.8 days
half-life (pH 5, pH 5.0, 252 mg/ml water): 117 days
half-life (pH 5, pH 5.0, 320 mg/ml water): 86.8 days
half-life (pH 5, pH 5.0, 390 mg/ml water): 40.6 days
half-life (pH 5, pH 5.0, 435 mg/ml water): 39.9 days
half-life (pH 5.6, pH 5.6, 252 mg/ml water): 146 days
half-life (pH 5.6, pH 5.6, 390 mg/ml water): 44.1 days
Vitamin D content on storage (pH 3.2, 252 mg/ml water, age 0 weeks, Batch #1 (D3), #2 (D3 P)): 787 IU/ml and 789 IU/ml
Vitamin D content on storage (pH 3.2, 252 mg/ml water, age 1 week, Batch #1 (D3), #2 (D3 P)): 714 IU/ml and 724 IU/ml
Vitamin D content on storage (pH 3.2, 252 mg/ml water, age 2 weeks, Batch #1 (D3), #2 (D3 P)): 718 IU/ml and 691 IU/ml
Vitamin D content on storage (pH 3.2, 252 mg/ml water, age 4 weeks, Batch #1 (D3), #2 (D3 P)): 720 IU/ml and 713 IU/ml
Vitamin D content on storage (pH 3.2, 252 mg/ml water, age 6 weeks, Batch #1 (D3), #2 (D3 P)): 656 IU/ml and 628 IU/ml
Vitamin D content on storage (pH 3.2, 252 mg/ml water, age 8 weeks, Batch #1 (D3), #2 (D3 P)): 658 IU/ml and 634 IU/ml
Vitamin D content on storage (pH 3.2, 252 mg/ml water, age 12 weeks, Batch #1 (D3), #2 (D3 P)): 514 IU/ml and 586 IU/ml
Vitamin D content on storage (pH 3.2, 252 mg/ml water, age 16 weeks, Batch #1 (D3), #2 (D3 P)): 559 IU/ml and 542 IU/ml
Vitamin D content on storage (pH 3.2, 390 mg/ml water, age 0 weeks, Batch #3 (D3), #4 (D3 P)): 445 IU/ml and 447 IU/ml
Vitamin D content on storage (pH 3.2, 390 mg/ml water, age 1 week, Batch #3 (D3), #4 (D3 P)): 429 IU/ml
Vitamin D content on storage (pH 3.2, 390 mg/ml water, age 2 weeks, Batch #3 (D3), #4 (D3 P)): 392 IU/ml and 399 IU/ml
Vitamin D content on storage (pH 3.2, 390 mg/ml water, age 4 weeks, Batch #3 (D3), #4 (D3 P)): 359 IU/ml and 369 IU/ml
Vitamin D content on storage (pH 3.2, 390 mg/ml water, age 8 weeks, Batch #3 (D3), #4 (D3 P)): 282 IU/ml and 271 IU/ml
Vitamin D content on storage (pH 3.2, 390 mg/ml water, age 12 weeks, Batch #3 (D3), #4 (D3 P)): 207 IU/ml and 211 IU/ml
Vitamin D content on storage (pH 3.2, 390 mg/ml water, age 16 weeks, Batch #3 (D3), #4 (D3 P)): 160 IU/ml and 149 IU/ml
Vitamin D content on storage (pH 4.2, 252 mg/ml water, age 0 weeks, Batch #5 (D3), #6 (D3 P)): 450 IU/ml
Vitamin D content on storage (pH 4.2, 252 mg/ml water, age 1 week, Batch #5 (D3), #6 (D3 P)): 440 IU/ml and 445 IU/ml
Vitamin D content on storage (pH 4.2, 252 mg/ml water, age 2 weeks, Batch #5 (D3), #6 (D3 P)): 422 IU/ml and 425 IU/ml
Vitamin D content on storage (pH 4.2, 252 mg/ml water, age 4 weeks, Batch #5 (D3), #6 (D3 P)): 364 IU/ml and 371 IU/ml
Vitamin D content on storage (pH 4.2, 252 mg/ml water, age 8 weeks, Batch #5 (D3), #6 (D3 P)): 331 IU/ml and 315 IU/ml
Vitamin D content on storage (pH 4.2, 252 mg/ml water, age 12 weeks, Batch #5 (D3), #6 (D3 P)): 255 IU/ml and 267 IU/ml
Vitamin D content on storage (pH 4.2, 252 mg/ml water, age 16 weeks, Batch #5 (D3), #6 (D3 P)): 198 IU/ml and 224 IU/ml
Vitamin D content on storage (pH 4.2, 390 mg/ml water, age 0 weeks, Batch #7 (D3), #8 (D3 P)): 451 IU/ml and 448 IU/ml
Vitamin D content on storage (pH 4.2, 390 mg/ml water, age 1 week, Batch #7 (D3), #8 (D3 P)): 420 IU/ml and 418 IU/ml
Vitamin D content on storage (pH 4.2, 390 mg/ml water, age 2 weeks, Batch #7 (D3), #8 (D3 P)): 357 IU/ml and 360 IU/ml
Vitamin D content on storage (pH 4.2, 390 mg/ml water, age 4 weeks, Batch #7 (D3), #8 (D3 P)): 301 IU/ml and 299 IU/ml
Vitamin D content on storage (pH 4.2, 390 mg/ml water, age 8 weeks, Batch #7 (D3), #8 (D3 P)): 181 IU/ml and 178 IU/ml
Vitamin D content on storage (pH 4.2, 390 mg/ml water, age 12 weeks, Batch #7 (D3), #8 (D3 P)): 109 IU/ml and 124 IU/ml
Vitamin D content on storage (pH 4.2, 390 mg/ml water, age 16 weeks, Batch #7 (D3), #8 (D3 P)): 91.7 IU/ml and 76.1 IU/ml
Vitamin D content on storage (pH 5.0, 252 mg/ml water, age 0 weeks, Batch #9 (D3), #10 (D3 P)): 840 IU/ml and 851 IU/ml
Vitamin D content on storage (pH 5.0, 252 mg/ml water, age 1 week, Batch #9 (D3), #10 (D3 P)): 791 IU/ml and 793 IU/ml
Vitamin D content on storage (pH 5.0, 252 mg/ml water, age 4 weeks, Batch #9 (D3), #10 (D3 P)): 720 IU/ml and 700 IU/ml
Vitamin D content on storage (pH 5.0, 252 mg/ml water, age 8 weeks, Batch #9 (D3), #10 (D3 P)): 583 IU/ml and 590 IU/ml
Vitamin D content on storage (pH 5.0, 252 mg/ml water, age 12 weeks, Batch #9 (D3), #10 (D3 P)): 478 IU/ml and 482 IU/ml
Vitamin D content on storage (pH 5.0, 252 mg/ml water, age 16 weeks, Batch #9 (D3), #10 (D3 P)): 460 IU/ml and 430 IU/ml
Vitamin D content on storage (pH 5.0, 390 mg/ml water (so in the source), age 0 weeks, Batch #11 (D3), #12 (D3 P)): 454 IU/ml and 449 IU/ml
Vitamin D content on storage (pH 5.0, 390 mg/ml water (so in the source), age 1 week, Batch #11 (D3), #12 (D3 P)): 432 IU/ml and 423 IU/ml
Vitamin D content on storage (pH 5.0, 390 mg/ml water (so in the source), age 2 weeks, Batch #11 (D3), #12 (D3 P)): 424 IU/ml and 426 IU/ml
Vitamin D content on storage (pH 5.0, 390 mg/ml water (so in the source), age 4 weeks, Batch #11 (D3), #12 (D3 P)): 377 IU/ml and 371 IU/ml
Vitamin D content on storage (pH 5.0, 390 mg/ml water (so in the source), age 8 weeks, Batch #11 (D3), #12 (D3 P)): 291 IU/ml and 281 IU/ml
Vitamin D content on storage (pH 5.0, 390 mg/ml water (so in the source), age 12 weeks, Batch #11 (D3), #12 (D3 P)): 230 IU/ml and 237 IU/ml
Vitamin D content on storage (pH 5.0, 390 mg/ml water (so in the source), age 16 weeks, Batch #11 (D3), #12 (D3 P)): 196 IU/ml and 182 IU/ml
Vitamin D content on storage (pH 5.0, 390 mg/ml water, age 0 weeks, Batch #13 (D3), #14 (D3 P)): 453 IU/ml and 452 IU/ml
Vitamin D content on storage (pH 5.0, 390 mg/ml water, age 1 week, Batch #13 (D3), #14 (D3 P)): 413 IU/ml and 410 IU/ml
Vitamin D content on storage (pH 5.0, 390 mg/ml water, age 2 weeks, Batch #13 (D3), #14 (D3 P)): 363 IU/ml and 356 IU/ml
Vitamin D content on storage (pH 5.0, 390 mg/ml water, age 4 weeks, Batch #13 (D3), #14 (D3 P)): 298 IU/ml and 305 IU/ml
Vitamin D content on storage (pH 5.0, 390 mg/ml water, age 8 weeks, Batch #13 (D3), #14 (D3 P)): 166 IU/ml and 168 IU/ml
Vitamin D content on storage (pH 5.0, 435 mg/ml water, age 0 weeks, Batch #15 (D3), #16 (D3 P)): 450 IU/ml and 453 IU/ml
Vitamin D content on storage (pH 5.0, 435 mg/ml water, age 1 week, Batch #15 (D3), #16 (D3 P)): 400 IU/ml and 426 IU/ml
Vitamin D content on storage (pH 5.0, 435 mg/ml water, age 2 weeks, Batch #15 (D3), #16 (D3 P)): 370 IU/ml
Vitamin D content on storage (pH 5.0, 435 mg/ml water, age 4 weeks, Batch #15 (D3), #16 (D3 P)): 285 IU/ml and 291 IU/ml
Vitamin D content on storage (pH 5.0, 435 mg/ml water, age 8 weeks, Batch #15 (D3), #16 (D3 P)): 187 IU/ml
